The text below walks through data of ChEMBL document CHEMBL2429821, “A Casein kinase 1/Checkpoint kinase 1 pyrazolo-pyridine protein kinase inhibitor as novel activator of the p53 pathway” (Bioorg Med Chem Lett, 2013).

Test [1] has as its target Cyclin-dependent kinase 2 (Homo sapiens) (UniProt P24941). In words: Inhibition of human CDK2 assessed as residual activity at 1 uM relative to control.
Test [2] concerns the target Ribosomal protein S6 kinase beta-1 (Homo sapiens) (UniProt P23443). In words: Inhibition of human S6K1 assessed as residual activity at 10 uM relative to control.
For test [3], the target named is Myosin light chain kinase, smooth muscle (Homo sapiens) (UniProt Q15746). Nature of the test: Inhibition of human smMLCK assessed as residual activity at 10 uM relative to control.
Test [4] has as its target Aurora kinase B (Homo sapiens) (UniProt Q96GD4). In words: Inhibition of human Aurora-B assessed as residual activity at 10 uM relative to control.
For test [5], the target named is Tyrosine-protein kinase SYK (Homo sapiens) (UniProt P43405). Nature of the test: Inhibition of human SYK assessed as residual activity at 10 uM relative to control.
The target in test [6] is T1, Fibroblast growth factor receptor 1 (Homo sapiens, UniProt P11362). In words: Inhibition of human FGFR1 assessed as residual activity at 1 uM relative to control.
For test [7], the target named is T1, Fibroblast growth factor receptor 1. In words: Inhibition of human FGFR1 assessed as residual activity at 10 uM relative to control.
Test [8] concerns the target Serine/threonine-protein kinase PLK1 (Homo sapiens) (UniProt P53350). Nature of the test: Inhibition of human PLK1 assessed as residual activity at 10 uM relative to control.
The target in test [9] is Dual specificity tyrosine-phosphorylation-regulated kinase 1A (Rattus norvegicus) (UniProt Q63470). In words: Inhibition of rat DYRK1alpha assessed as residual activity at 10 uM relative to control.
Test [10] deals with Casein kinase II (Homo sapiens) (UniProt P67870+P68400+P19784). In words: Inhibition of human CK2 assessed as residual activity at 1 uM relative to control. In kind it is protein-complex assay.
Test [11] has as its target T2, Eukaryotic elongation factor 2 kinase (Homo sapiens) (UniProt O00418).
T2 sequence (whole entry): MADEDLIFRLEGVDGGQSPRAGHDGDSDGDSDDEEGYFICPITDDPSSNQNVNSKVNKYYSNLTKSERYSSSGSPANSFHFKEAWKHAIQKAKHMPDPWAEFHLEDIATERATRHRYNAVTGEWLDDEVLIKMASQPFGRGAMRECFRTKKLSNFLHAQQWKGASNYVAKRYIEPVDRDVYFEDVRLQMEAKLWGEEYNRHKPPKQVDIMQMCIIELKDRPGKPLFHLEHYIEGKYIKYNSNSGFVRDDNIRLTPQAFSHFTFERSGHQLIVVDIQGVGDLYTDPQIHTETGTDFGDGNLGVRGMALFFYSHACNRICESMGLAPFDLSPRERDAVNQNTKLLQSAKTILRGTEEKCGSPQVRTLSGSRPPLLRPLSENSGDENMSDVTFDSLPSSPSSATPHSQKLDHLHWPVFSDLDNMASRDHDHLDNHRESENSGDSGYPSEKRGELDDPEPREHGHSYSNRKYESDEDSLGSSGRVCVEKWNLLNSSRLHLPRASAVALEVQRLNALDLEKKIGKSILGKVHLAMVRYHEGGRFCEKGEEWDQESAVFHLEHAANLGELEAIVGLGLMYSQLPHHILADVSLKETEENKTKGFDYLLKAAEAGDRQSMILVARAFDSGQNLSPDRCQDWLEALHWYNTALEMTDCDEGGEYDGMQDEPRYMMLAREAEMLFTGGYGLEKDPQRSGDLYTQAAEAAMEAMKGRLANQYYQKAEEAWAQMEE
Nature of the test: Inhibition of human EF2K assessed as residual activity at 1 uM relative to control.

The target of test [12] is Tyrosine-protein kinase CSK (Homo sapiens) (UniProt P41240). Nature of the test: Inhibition of human CSK assessed as residual activity at 10 uM relative to control.
In test [13] the target is Aurora kinase B (Homo sapiens) (UniProt Q96GD4). In words: Inhibition of human Aurora-B assessed as residual activity at 1 uM relative to control.
Another test is filed under the species Bos taurus. Nature of the test: Inhibition of cow PKA assessed as residual activity at 1 uM relative to control.
The target in test [14] is Insulin receptor-related protein (Homo sapiens) (UniProt P14616). In words: Inhibition of human IRR assessed as residual activity at 1 uM relative to control.
For test [15], the target named is T3, Serine/threonine-protein kinase TBK1 (Homo sapiens) (UniProt Q9UHD2).
T3 sequence (whole entry): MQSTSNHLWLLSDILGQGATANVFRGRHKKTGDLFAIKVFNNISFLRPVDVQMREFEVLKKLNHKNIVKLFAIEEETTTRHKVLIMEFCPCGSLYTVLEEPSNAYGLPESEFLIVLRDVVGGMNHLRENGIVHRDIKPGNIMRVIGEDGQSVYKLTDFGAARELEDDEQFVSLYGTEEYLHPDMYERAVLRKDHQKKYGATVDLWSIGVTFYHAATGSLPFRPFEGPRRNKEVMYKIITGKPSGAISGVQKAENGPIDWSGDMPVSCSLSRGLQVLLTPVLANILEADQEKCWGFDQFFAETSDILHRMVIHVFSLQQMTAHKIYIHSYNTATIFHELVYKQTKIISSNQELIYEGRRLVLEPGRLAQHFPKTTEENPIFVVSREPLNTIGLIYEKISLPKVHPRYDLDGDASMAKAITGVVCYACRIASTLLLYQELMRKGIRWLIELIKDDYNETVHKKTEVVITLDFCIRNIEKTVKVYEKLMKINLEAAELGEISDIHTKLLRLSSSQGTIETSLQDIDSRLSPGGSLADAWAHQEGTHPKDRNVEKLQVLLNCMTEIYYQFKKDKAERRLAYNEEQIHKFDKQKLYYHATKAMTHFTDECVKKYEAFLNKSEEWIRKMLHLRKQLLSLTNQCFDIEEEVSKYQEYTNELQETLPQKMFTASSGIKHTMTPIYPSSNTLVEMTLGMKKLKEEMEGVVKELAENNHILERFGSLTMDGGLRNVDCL
In words: Inhibition of human TBK1 assessed as residual activity at 1 uM relative to control.

Test [16] deals with MAP/microtubule affinity-regulating kinase 3 (Homo sapiens) (UniProt P27448). Nature of the test: Inhibition of human MARK3 assessed as residual activity at 1 uM relative to control.
Test [17] concerns the target Proto-oncogene tyrosine-protein kinase Src (Homo sapiens) (UniProt P12931). In words: Inhibition of human SRC assessed as residual activity at 10 uM relative to control.
Test [18] shares this target. In words: Inhibition of human SRC assessed as residual activity at 1 uM relative to control.
Test [19] concerns the target Rho-associated protein kinase 2 (Rattus norvegicus) (UniProt Q62868). In words: Inhibition of rat ROCK2 assessed as residual activity at 1 uM relative to control.
The target in test [20] is Insulin-like growth factor 1 receptor (Homo sapiens) (UniProt P08069). In words: Inhibition of human IGF-1R assessed as residual activity at 10 uM relative to control.
In test [21] the target is Insulin receptor-related protein (Homo sapiens) (UniProt P14616). In words: Inhibition of human IRR assessed as residual activity at 10 uM relative to control.
Test [22] concerns the target Ribosomal protein S6 kinase alpha-3 (Homo sapiens) (UniProt P51812). Nature of the test: Inhibition of human RSK2 assessed as residual activity at 10 uM relative to control.

Chain of Ribosomal protein S6 kinase alpha-3 (Homo sapiens) (P51812 whole entry): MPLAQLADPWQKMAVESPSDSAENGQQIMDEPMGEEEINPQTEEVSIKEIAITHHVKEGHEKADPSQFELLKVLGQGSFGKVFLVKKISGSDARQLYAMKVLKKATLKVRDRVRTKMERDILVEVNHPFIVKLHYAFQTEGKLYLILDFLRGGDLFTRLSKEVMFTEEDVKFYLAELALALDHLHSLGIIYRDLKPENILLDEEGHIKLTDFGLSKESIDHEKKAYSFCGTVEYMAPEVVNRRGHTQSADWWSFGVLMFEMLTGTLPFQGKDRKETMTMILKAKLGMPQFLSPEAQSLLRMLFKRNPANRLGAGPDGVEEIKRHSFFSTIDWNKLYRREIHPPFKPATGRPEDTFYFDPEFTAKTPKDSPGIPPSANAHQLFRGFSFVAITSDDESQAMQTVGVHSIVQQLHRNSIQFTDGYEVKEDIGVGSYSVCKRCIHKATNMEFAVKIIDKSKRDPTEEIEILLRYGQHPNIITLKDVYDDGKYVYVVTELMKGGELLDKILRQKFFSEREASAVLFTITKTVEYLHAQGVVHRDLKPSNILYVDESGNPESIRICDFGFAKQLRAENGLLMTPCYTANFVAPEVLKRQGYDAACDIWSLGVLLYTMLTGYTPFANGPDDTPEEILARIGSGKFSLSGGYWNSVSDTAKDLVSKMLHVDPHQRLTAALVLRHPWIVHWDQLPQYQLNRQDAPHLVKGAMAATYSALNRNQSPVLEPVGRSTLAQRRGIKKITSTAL
Chain of Serine/threonine-protein kinase PLK1 (Homo sapiens) (P53350 whole entry): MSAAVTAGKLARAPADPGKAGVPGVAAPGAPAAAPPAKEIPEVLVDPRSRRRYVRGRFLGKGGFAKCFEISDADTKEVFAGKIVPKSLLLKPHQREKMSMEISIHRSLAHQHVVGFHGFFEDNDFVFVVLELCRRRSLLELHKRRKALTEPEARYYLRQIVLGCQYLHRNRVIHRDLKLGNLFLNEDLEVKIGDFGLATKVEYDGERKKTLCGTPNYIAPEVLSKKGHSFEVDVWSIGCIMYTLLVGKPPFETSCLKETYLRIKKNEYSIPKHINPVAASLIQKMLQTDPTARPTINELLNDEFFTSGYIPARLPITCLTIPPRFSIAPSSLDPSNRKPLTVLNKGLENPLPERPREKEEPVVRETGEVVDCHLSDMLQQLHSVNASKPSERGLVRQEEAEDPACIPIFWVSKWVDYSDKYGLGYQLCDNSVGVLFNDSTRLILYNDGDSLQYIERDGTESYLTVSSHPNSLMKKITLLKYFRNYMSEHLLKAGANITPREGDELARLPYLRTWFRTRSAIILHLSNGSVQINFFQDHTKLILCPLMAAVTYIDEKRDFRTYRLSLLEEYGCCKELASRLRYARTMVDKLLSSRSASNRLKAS
Chain of Insulin-like growth factor 1 receptor (Homo sapiens) (P08069 31-736 limits assumed): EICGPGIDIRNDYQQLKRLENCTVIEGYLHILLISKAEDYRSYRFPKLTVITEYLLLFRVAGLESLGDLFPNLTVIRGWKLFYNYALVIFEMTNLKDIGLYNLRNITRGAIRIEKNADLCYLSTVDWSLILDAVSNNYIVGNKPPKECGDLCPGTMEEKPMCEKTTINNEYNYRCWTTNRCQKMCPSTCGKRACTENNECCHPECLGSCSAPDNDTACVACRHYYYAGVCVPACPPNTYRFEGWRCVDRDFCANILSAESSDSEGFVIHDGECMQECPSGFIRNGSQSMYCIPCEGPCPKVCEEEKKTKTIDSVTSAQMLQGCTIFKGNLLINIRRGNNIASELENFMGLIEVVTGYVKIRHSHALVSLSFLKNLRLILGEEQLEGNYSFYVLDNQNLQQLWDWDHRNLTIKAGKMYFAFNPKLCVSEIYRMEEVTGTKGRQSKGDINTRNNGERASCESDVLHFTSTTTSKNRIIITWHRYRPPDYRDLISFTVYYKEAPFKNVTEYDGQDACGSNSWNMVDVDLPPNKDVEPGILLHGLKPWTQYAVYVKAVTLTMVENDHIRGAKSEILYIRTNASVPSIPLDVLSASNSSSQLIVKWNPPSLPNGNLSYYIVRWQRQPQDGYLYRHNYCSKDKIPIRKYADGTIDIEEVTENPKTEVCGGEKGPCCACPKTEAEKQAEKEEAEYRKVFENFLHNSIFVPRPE
Chain of Insulin-like growth factor 1 receptor (Homo sapiens) (P08069 741-1367 limits assumed): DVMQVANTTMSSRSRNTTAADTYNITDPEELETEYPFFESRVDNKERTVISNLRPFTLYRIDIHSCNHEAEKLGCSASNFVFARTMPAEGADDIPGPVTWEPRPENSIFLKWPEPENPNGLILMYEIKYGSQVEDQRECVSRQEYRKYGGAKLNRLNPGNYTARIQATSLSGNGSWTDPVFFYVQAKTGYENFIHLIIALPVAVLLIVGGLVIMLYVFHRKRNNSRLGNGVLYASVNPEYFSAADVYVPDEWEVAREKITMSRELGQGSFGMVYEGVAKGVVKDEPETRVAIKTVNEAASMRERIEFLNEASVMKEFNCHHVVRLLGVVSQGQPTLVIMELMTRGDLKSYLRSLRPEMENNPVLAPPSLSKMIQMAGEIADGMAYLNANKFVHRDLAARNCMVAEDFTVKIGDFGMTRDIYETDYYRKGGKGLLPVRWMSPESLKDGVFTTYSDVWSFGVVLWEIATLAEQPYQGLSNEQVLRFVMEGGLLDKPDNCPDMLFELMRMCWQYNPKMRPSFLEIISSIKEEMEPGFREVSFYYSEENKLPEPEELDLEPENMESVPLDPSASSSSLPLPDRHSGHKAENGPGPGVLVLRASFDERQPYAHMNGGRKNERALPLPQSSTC
T1 sequence (P11362 22-822 limits assumed): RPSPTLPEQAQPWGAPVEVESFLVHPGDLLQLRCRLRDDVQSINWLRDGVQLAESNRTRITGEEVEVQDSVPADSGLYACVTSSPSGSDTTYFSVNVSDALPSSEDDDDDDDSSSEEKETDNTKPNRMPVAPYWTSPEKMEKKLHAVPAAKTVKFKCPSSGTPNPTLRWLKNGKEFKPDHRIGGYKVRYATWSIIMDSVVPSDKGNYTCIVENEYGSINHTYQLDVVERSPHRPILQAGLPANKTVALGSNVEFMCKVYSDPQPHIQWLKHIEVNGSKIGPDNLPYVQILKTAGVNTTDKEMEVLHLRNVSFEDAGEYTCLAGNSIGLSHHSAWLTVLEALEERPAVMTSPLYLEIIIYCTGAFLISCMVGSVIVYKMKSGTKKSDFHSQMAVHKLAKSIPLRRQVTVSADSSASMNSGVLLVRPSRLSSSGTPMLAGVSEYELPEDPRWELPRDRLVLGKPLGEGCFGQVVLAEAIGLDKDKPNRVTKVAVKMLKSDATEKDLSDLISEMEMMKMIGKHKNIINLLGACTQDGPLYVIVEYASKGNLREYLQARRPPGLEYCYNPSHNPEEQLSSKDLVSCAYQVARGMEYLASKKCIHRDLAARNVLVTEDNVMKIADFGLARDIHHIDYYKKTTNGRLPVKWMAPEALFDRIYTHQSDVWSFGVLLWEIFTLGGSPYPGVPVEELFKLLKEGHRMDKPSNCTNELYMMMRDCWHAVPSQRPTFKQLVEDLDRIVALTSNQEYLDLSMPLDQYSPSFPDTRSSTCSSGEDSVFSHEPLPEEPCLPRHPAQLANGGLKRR
Chain of MAP/microtubule affinity-regulating kinase 3 (Homo sapiens) (P27448 whole entry, looked up): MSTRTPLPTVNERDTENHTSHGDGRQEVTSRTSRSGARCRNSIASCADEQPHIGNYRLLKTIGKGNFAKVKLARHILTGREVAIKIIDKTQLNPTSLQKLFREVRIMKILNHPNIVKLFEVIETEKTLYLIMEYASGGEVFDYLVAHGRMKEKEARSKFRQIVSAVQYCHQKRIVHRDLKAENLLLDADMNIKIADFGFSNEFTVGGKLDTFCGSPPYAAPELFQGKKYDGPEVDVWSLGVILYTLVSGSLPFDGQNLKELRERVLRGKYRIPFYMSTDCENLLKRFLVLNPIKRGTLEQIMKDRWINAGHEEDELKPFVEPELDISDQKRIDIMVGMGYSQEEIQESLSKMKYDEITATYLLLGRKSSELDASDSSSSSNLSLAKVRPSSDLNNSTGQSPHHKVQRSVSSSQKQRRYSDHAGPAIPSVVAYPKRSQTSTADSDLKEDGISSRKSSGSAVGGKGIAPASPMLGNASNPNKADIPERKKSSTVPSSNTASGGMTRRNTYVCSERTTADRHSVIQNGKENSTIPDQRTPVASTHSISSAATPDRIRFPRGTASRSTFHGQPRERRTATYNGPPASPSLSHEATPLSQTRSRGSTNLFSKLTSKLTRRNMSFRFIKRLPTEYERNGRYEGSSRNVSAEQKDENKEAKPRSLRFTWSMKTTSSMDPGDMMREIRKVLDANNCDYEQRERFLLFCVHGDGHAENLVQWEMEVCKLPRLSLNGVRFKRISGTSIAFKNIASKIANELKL
Chain of Proto-oncogene tyrosine-protein kinase Src (Homo sapiens) (P12931 2-536 limits assumed): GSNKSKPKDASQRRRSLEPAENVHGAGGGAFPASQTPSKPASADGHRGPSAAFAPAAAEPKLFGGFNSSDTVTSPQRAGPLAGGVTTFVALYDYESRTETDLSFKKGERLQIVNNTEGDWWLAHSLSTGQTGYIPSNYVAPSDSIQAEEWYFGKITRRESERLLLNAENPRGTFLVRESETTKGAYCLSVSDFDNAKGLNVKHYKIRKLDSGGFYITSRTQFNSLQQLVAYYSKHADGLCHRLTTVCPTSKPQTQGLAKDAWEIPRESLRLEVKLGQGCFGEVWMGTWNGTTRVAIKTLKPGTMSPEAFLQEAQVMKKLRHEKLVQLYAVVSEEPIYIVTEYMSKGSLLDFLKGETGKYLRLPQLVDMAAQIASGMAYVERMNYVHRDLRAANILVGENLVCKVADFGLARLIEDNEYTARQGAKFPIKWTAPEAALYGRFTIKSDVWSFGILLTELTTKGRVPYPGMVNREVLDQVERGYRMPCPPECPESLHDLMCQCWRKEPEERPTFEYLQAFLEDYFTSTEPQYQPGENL

For the molecule `CC(=O)Nc1cccc(-c2cnc3[nH]nc(C)c3c2)c1`, the Activity came out at 76.7% in test [1]; 69.8% in test [2]; 45.6% in [3]; 85.1% in test [4]; 55.9% in test [5]; 107% in test [6]. Further, the Activity in test [7] came out at 54.6%; in [8], 95.5%; in test [9], 39.9%; in [10] it was 102%; in test [11], 112%; in [12], 48%. The Activity was determined as 77.2% in test [13]; 95% in the test filed under Bos taurus; 73.9% in test [14]; 88.9% in test [15]; 62.6% in test [16]; 23.8% in test [17]. The Activity turned out to be 65% in [18]; 93.9% in test [19]; 12.5% in test [20]; 48.8% in test [21]; 78.3% in [22].

As for `CCCC(=O)Nc1n[nH]c2ncc(-c3cccnc3)cc12`, the Activity was 9% in test [1]; 88% in test [2]; 62% in [3]; 71% in test [4]; 104% in test [5]; 92% in test [6]. Further, the Activity in test [7] was 68%; in test [8], 80%; in test [9] it was 2%; in test [10] it was 82%; in test [11], 106%; in test [12] it was 80%. For the same molecule, the Activity was 102% in test [13]; 101% in the test filed under Bos taurus; 61% in [14]; 91% in [15]; 84% in test [16]; 72% in test [17]. Besides, the Activity in test [18] was 75%; in [19], 121%; in test [20], 92%; in [21], 58%; in test [22], 87%.

Regarding `CC(=O)Nc1nccc(-c2c(-c3ccccc3)noc2C)n1`, the Activity stood at 92.2% in test [1]; 99.9% in test [2]; 79.3% in test [3]; 93% in test [4]; 98.7% in test [5]; 99.8% in test [6]. Also, the Activity in test [7] stood at 99.6%; in test [8], 81.6%; in [9], 102%; in test [10] it was 79.3%; in [11], 83.2%; in test [12] it was 104%. Moreover, the Activity in [13] was 93.5%; in the test filed under Bos taurus, 81.7%; in test [14] it was 83.2%; in test [15] it was 106%; in test [16], 94.6%; in [17], 91.9%. The Activity in [18] came to 98.3%; in [19], 95%; in test [20] it was 92.5%; in test [21], 81.4%; in test [22], 103%.
